# Reference: BindingDB's records for doi:10.1016/j.bmcl.2011.06.024 (Merck Research Laboratories, 2011)
# Target: T1, Smoothened homolog (Homo sapiens, UniProt Q99835)
# Assay: Antagonist activity at smoothened expressed in mouse Shh Light2 cells co-expressing Gli-dependent reporter gene assessed as inhibition of Hh pathway
# T1 sequence (Q99835 whole entry): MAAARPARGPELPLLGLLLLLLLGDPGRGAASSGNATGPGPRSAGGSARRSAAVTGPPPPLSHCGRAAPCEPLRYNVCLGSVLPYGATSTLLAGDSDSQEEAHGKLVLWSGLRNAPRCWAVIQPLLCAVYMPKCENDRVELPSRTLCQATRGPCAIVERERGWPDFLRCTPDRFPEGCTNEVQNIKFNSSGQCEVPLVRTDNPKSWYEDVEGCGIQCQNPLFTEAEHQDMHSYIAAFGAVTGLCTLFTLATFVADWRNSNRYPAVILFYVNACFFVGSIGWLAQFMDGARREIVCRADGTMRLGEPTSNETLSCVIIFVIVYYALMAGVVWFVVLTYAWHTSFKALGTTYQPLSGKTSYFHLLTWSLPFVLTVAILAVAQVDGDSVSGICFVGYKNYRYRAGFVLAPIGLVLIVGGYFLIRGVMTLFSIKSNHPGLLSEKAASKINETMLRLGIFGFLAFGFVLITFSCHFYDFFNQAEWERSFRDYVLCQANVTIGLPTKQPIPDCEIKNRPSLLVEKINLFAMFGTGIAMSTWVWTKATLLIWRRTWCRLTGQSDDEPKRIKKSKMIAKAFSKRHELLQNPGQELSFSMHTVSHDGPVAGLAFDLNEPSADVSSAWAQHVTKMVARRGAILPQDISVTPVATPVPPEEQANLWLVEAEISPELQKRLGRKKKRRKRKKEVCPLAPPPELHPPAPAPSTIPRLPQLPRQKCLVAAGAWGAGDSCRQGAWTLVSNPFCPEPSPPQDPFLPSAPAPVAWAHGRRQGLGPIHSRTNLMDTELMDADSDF
row,IC50 [nM],SMILES
1,> 2500,O=C(Nc1ccccc1-c1ccccc1)N1CCn2c(c(O)n(C3CC34CCCCC4)c2=O)C1 (stereo not given)

# Target: not listed separately
# Assay: Antagonist activity at smoothened expressed in mouse Shh Light2 cells co-expressing Gli-dependent reporter gene assessed as inhibition of Hh pathway
row,IC50 [nM],SMILES
1,18,O=C(Nc1cccnc1-c1cccc(Cl)c1)N1CCn2c(c(O)n([C@H]3C[C@@H]3c3ccccc3)c2=O)C1
2,510,O=C(Nc1ccc(F)c(Cl)c1Cl)N1CCn2c(c(O)n([C@H]3C[C@@H]3c3ccccc3)c2=O)C1
3,16,O=C(Nc1ccnn1-c1ccccc1)N1CCn2c(c(O)n([C@H]3C[C@@H]3c3ccccc3)c2=O)C1
4,330,O=C(Nc1c(Cl)cc(C(F)(F)F)cc1Cl)N1CCn2c(c(O)n([C@H]3C[C@@H]3c3ccccc3)c2=O)C1
5,1600,CN(C(=O)N1CCn2c(c(O)n([C@H]3C[C@@H]3c3ccccc3)c2=O)C1)c1ccccc1-c1ccccc1
6,600,O=C(NC1CCCCC1)N1CCn2c(c(O)n([C@H]3C[C@@H]3c3ccccc3)c2=O)C1
7,240,O=C(Nc1cccnc1-c1ccsc1)N1CCn2c(c(O)n([C@H]3C[C@@H]3c3ccccc3)c2=O)C1
8,82,COc1cccc(-c2ncccc2NC(=O)N2CCn3c(c(O)n([C@H]4C[C@@H]4c4ccccc4)c3=O)C2)c1
9,370,Cc1c(Cl)cccc1NC(=O)N1CCn2c(c(O)n([C@H]3C[C@@H]3c3ccccc3)c2=O)C1
10,2500,O=C(Nc1ccccc1-c1ccccc1)N1CCn2c(c(O)n(-c3cccc(-c4ccccc4)c3)c2=O)C1
11,89,O=C(Nc1ccncc1-c1ccccc1)N1CCn2c(c(O)n([C@H]3C[C@@H]3c3ccccc3)c2=O)C1
12,4500,CC(C)(C)C(=O)N1CCn2c(c(O)n([C@H]3C[C@@H]3c3ccccc3)c2=O)C1
13,3000,O=C(Nc1ccccc1-c1ccccc1)N1CCN2C(=O)N([C@H]3C[C@@H]3c3ccccc3)CC2C1 (stereo not given in full)
14,53,CS(=O)(=O)c1cc(Cl)c(NC(=O)N2CCn3c(c(O)n([C@H]4C[C@@H]4c4ccccc4)c3=O)C2)c(Cl)c1
15,340,O=C(Nc1cccc(Cl)c1Cl)N1CCn2c(c(O)n([C@H]3C[C@@H]3c3ccccc3)c2=O)C1
16,780,O=C(Nc1cc(Cl)cc(Cl)c1)N1CCn2c(c(O)n([C@H]3C[C@@H]3c3ccccc3)c2=O)C1
17,2700,O=C(Nc1ccc2c(c1)OCO2)N1CCn2c(c(O)n([C@H]3C[C@@H]3c3ccccc3)c2=O)C1
18,180,CC(C)c1ccccc1NC(=O)N1CCn2c(c(O)n([C@H]3C[C@@H]3c3ccccc3)c2=O)C1
19,530,Cc1cccc(Cl)c1NC(=O)N1CCn2c(c(O)n([C@H]3C[C@@H]3c3ccccc3)c2=O)C1
20,5000,O=C(Nc1ccccc1-c1ccccc1)N1CCn2c(c(O)n(CCc3ccccc3)c2=O)C1
21,150,Cc1cc(C#N)cc(Cl)c1NC(=O)N1CCn2c(c(O)n([C@H]3C[C@@H]3c3ccccc3)c2=O)C1
22,2200,COC(=O)c1cccc(NC(=O)N2CCn3c(c(O)n([C@H]4C[C@@H]4c4ccccc4)c3=O)C2)c1Cl
23,1900,CCCCN(CCCC)C(=O)N1CCn2c(c(O)n([C@H]3C[C@@H]3c3ccccc3)c2=O)C1
24,28,O=C(Nc1cccnc1-c1ccccc1)N1CCn2c(c(O)n([C@H]3C[C@@H]3c3ccccc3)c2=O)C1
25,1200,Cn1cc(-c2ncccc2NC(=O)N2CCn3c(c(O)n([C@H]4C[C@@H]4c4ccccc4)c3=O)C2)cn1
26,1500,CCCCCCNC(=O)N1CCn2c(c(O)n([C@H]3C[C@@H]3c3ccccc3)c2=O)C1
27,4600,O=C(Nc1ccccc1-c1ccccc1)c1ccc2c(c1)C(=O)N([C@H]1C[C@@H]1c1ccccc1)C2=O
28,320,O=C(Nc1ccccc1-c1ccccc1)N1CCn2c(c(O)n(C3Cc4ccccc4C3)c2=O)C1

# Target: T1, Smoothened homolog
# Assay: Displacement of [125I]-PA cyclopamine from smoothened expressed in african green monkey COS-1 cells after 10 mins by autoradiography
row,IC50 [nM],SMILES
1,> 2500,O=C(NCc1ccco1)N1CCn2c(c(O)n([C@H]3C[C@@H]3c3ccccc3)c2=O)C1
2,> 2500,O=C(Nc1ccccc1-c1ccccc1)N1CCn2c(c(O)n(-c3cccc(-c4ccccc4)c3)c2=O)C1
3,> 1500,CC(=O)N1CCn2c(c(O)n([C@H]3C[C@@H]3c3ccccc3)c2=O)C1
4,> 2500,CN(C)C(=O)N1CCn2c(c(O)n([C@H]3C[C@@H]3c3ccccc3)c2=O)C1
5,> 2500,O=C(Nc1ccccc1-c1ccccc1)N1CCn2c(c(O)n(C3CC34CCCCC4)c2=O)C1 (stereo not given)
6,> 2500,O=c1n2c(c(O)n1[C@H]1C[C@@H]1c1ccccc1)CN(CC1CCCCC1)CC2
7,> 2500,O=C(Nc1ccccc1-c1ccccc1)N1CCn2c(c(O)n(Cc3ccccc3)c2=O)C1
8,> 2500,CCCCn1c(O)c2n(c1=O)CCN(C(=O)Nc1ccccc1-c1ccccc1)C2
9,> 1500,O=C(C1CCCCC1)N1CCn2c(c(O)n([C@H]3C[C@@H]3c3ccccc3)c2=O)C1
10,> 1500,COC(=O)N1CCn2c(c(O)n([C@H]3C[C@@H]3c3ccccc3)c2=O)C1
11,> 2500,O=C(Nc1ccccc1-c1ccccc1)N1CCn2c(c(O)n(-c3cccc4ccccc34)c2=O)C1
